According to patent publication US20040023961A1, “Aryl ureas with raf kinase and angiogenisis inhibiting activity” (BAYER CORPORATION, priority 2002, published 2004):

Columns and labels:
Flk-1 = Flk-1 (Mus musculus, UniProt P35918); assay: In Vitro Flk-1 ELISA Assay; type: biochemical, murine; conditions: poly-Glu-Tyr coated plates, 3.3 μM ATP
Protocol: In Vitro Flk-1 ELISA Assay
The Flk-1 ELISA assay was performed on 96-well Costar 9018 high-binding plates coated overnight with poly-Glu-Tyr (Sigma #P 0275). After coating, plates were washed with 20 mM HEPES pH=7.5, 150 mM NaCl, 0.1% Tween-20. These plates were then blocked with Blocking Buffer (20 mM HEPES pH=7.5, 150 mM NaCl, 1% BSA, 0.1% Tween-20) for 1 hr at room temperature on a plate shaker. After washing, the reaction was prepared using 20 mM HEPES pH=7.5, 100 mM KCl, 10 mM MgCl2, 3 mM MnCl2 0.05% glycerol, 0.005% Triton X-100, 1 mM BME and 3.3 μM ATP. The assay was initiated with Flk-1 giving a final enzyme concentration of 50 ng/well.
The reaction was incubated at room temperature for 1 hr on a plate shaker and was stopped by washing the plate. The primary antibody incubation step was for 1 hour at room temperature using PT66 phosphotyrosine antibody (Sigma 1:5000 dilution). After washing, the plate was then incubated (1 hr room temp) with the secondary antibody solution of anti-mouse HRP-conjugated antibody (Amersham 1:5000 dilution). After another wash step, plates were developed using 100 μL TMB substrate solution (KPL) and then quenched with KPL stop solution. These quenched plates were read at 450 nm on a Molecular Devices spectrophotomer plate reader. For IC50 generation, compounds were added prior to the enzyme initiation. […]

[1] = system: neovascularization of the joint; conditions: rat collagen arthritis model; Peacock et al. 1992; cited from earlier work

Sequence of Flk-1 (P35918 20-1345): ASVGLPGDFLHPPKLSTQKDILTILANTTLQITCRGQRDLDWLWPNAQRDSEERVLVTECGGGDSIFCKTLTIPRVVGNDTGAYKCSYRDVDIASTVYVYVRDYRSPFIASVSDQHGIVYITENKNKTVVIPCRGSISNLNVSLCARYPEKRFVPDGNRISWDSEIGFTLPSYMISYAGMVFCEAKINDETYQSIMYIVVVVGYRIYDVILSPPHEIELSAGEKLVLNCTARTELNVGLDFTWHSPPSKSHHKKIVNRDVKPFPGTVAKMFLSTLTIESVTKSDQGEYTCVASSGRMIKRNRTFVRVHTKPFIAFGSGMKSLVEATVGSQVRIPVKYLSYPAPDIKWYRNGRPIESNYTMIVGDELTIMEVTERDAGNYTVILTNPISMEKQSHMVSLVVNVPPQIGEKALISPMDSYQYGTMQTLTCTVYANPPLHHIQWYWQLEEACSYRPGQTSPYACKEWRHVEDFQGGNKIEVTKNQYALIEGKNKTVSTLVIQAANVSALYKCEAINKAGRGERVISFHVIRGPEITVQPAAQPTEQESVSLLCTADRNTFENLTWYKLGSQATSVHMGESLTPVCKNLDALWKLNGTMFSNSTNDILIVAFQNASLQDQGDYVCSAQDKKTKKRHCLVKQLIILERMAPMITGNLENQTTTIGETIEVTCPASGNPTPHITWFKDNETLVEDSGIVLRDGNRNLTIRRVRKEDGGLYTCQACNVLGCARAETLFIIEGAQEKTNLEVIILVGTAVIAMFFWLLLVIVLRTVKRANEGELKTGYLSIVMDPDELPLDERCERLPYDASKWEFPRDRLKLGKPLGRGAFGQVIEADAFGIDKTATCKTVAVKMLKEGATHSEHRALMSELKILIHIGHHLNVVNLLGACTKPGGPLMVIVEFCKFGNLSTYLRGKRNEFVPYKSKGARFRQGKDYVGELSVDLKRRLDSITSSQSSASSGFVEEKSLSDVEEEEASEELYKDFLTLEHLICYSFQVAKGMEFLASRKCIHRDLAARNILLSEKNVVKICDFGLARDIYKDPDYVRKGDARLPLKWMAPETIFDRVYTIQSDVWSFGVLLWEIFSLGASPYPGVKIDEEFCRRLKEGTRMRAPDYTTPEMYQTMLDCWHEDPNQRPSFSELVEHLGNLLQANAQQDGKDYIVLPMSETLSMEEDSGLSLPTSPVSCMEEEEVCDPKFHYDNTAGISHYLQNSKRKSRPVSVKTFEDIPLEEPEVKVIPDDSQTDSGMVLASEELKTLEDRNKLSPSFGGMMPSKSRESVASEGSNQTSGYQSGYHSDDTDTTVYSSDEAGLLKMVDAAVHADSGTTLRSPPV

Compound	IC50 (Flk-1) [nM]	neovascularization of the joint [1]
Cc1ccc(-n2nc(C(C)(C)C)cc2NC(=O)Nc2ccc(OCCN3CCOCC3)c3ccccc23)cc1 [{[3-(tert-butyl)-1-(4-methylphenyl)pyrazol-5-yl]amino}-N-[4-(2-morpholin-4-ylethoxy)naphthyl]carboxamide]	< 1000	
CO[C@@H]1[C@H](OC(=O)NC(=O)CCl)CC[C@]2(CO2)[C@H]1[C@@]1(C)O[C@@H]1CC=C(C)C [AGM-170]		prevent neovascularization of the joint
